System: transitional B. longum isolate NCC5004
Assay: in vitro tube fermentation of fecal sample supplemented with isolate NCC5004, isolate-specific qPCR
Assay type: cell-based, Bifidobacterium longum
Conditions: HMO 5 g/L as single carbon source, toddler fecal community, after 24 hr and 48 hrs
Protocol: All bacterial strains retrieved from the Nestlé Culture Collection (NCC) were reactivated from a freeze-dried stock using two successive culturing steps (16 h, 37° C., anaerobiosis) in MRS (De Man, Rogosa and Sharpe) media supplemented with 0.05% cysteine (MRSc). Reactivated cultures were then centrifuged, washed, and resuspended in 1 volume of PBS.
For in vitro tube fermentation experiments, pulverized or homogenized stool samples were mixed 10-fold by adding PBS/glycerol (1/10) (w/v) before centrifugation at 600×g for 2 minutes. The slurry and pellet were then stored at −80° C. Frozen slurry of a fecal sample was thawed from storage and then use for the in vitro tube fermentation assays. The fecal slurry was inoculated with media based on that disclosed in Gibson et al. (Applied and Environmental Microbiology; 1988; 54(11); 2750-2755) with some modifications, specifically the exclusion of any carbon source. […]
The in vitro tube fermentation assays (n=3 per testing group) were set up at 37° C. with gentle stirring in an anaerobic environment (gas flow of pure N2 and a mix of N2, H2, and CO2 to ensure anaerobic conditions). Aliquots (0.5 mL) from fermentation tubes were taken and DNA was extracted, purified and analyzed at the time points indicated (0 hr, 24 hr and 48 hr). […]

Substance	growth of NCC5004 (qPCR absolute abundance) compared to baseline (0 hrs)
3-fucosyllactose [3 FL]	significant growth
2′ fucosyllactose [2′FL]	significant growth

Source: patent publication US20250177458A1, “USES OF BIFIDOBACTERIUM LONGUM MICROORGANISMS HAVING THE CAPACITY TO DEGRADE BOTH HMO AND PLANT-DERIVED GLYCANS” (SOCIETE DES PRODUITS NESTLE S.A., priority 2022, published 2025)
